Columns and labels:
[1] = tested on: KB-3-1 cells; experiment: Annexin-V/PI staining (cell death analysis); assay type: cell-based, human; conditions: KB-3-1, 24 h
Description: 1. Supplementary Materials and Methods […]
1.2 Annexin-V/PI Staining
KB-3-1 cells were seeded (2x10^5cells/well) and treated on the following day for 24 h with the […]
Cells were trypsinized, centrifuged (300g, 5 min) and resuspended in 100 µL buffer A (10 mM HEPES, 140 mM NaCl and 2.5 mM CaCl2) and stained for 15 min in the dark with PI (1 µg/mL) and Annexin-V-APC (20 µL/mL, BD Biosciences). Two-hundred µL of buffer A were then added and 10,000 cells were measured by FACS analysis (FACSCalibur; Becton Dickinson). Percentages of viable, early and late apoptotic cells and of necrotic cells were determined by CellQuest Pro software (Becton, Dickinson and Company, NY, USA). […]
The following primary […]
antibodies specific for the following targets were diluted 1:1000 in TBST/3% BSA (w/v): PARP, Bak, Bax, Bim, Bcl-xL (polyclonal, Cell Signaling Technology, Beverly, MA, USA), caspase 9, cl. caspase 9 (monoclonal, Cell Signaling Technology) and β-actin (monoclonal, Clone AC-15, Sigma-Aldrich).
Secondary horseradish peroxidase-labeled antibodies (goat anti-rabbit or anti-mouse, Santa Cruz Biotechnology, Dallas, Texas, TX, USA) were diluted 1:10,000 in TBST/1% BSA. […]
(b) Mean percentages (± SD) of early (white bars) and late apoptotic (gray bars) and of necrotic cells (black bars) were determined by Annexin-V/PI staining after cells were treated for 24 h with the […]

[2] = tested on: KB-3-1-derived tumor xenografts; experiment: KB-3-1 xenograft mouse model; assay type: in vivo, CB-17/SCID mice
Description: For the allograft experiment, 4 × 10^5 CT-26 cells were resuspended in 50 µL RPMI medium and injected subcutaneously into the right flank of eight, 6–8 weeks old, male BALB/c mice that were obtained from Harlan Laboratories (San Pietro al Natisone, Italy). Likewise, in the xenograft experiment, 1 × 10^6 KB-3-1 cells in 50 µL RPMI medium were injected subcutaneously into the right flank of eight, 6–8 weeks old, male CB-17/IcrHanHsd-Prkdc severe combined immunodeficiency (SCID) mice. Of each group, four animals were randomly assigned to the control or to the treatment group. […] All animals were kept under pathogen-free conditions and all procedures were performed in a laminar flow hood. Effects of the treatment were assessed by daily recording of tumor size with a microcaliper and parameters indicating the animals’ overall health condition (e.g., body weight, fatigue, grooming, ragged coat, food and fluid consumption). Tumor volumes (mm^3) were calculated using the formula: (length × width^2)/2. […] The tumor mass was weighed and organs and tissues for immunohistochemical experiments were fixed in 4% formalin/PBS (Roti®-Histofix 4%, Roth, Karlsruhe, Germany) or shock-frozen in liquid nitrogen and stored at −80 °C until the samples were prepared for LC-MS/MS analysis. The experiments were approved by the ethics committee of the Austrian Federal Ministry of Science, Research, and Economy (BMWF-66.009/0084-II/3b/2013, date of approval: 5 September 2013) and performed in line with the Arrive guidelines for animal care and protection and with guidelines from the Austrian Animal Science Association and from the Federation of European Laboratory Animal Science Associations (FELASA).
From each mouse from both the control (n = 4) and the treatment group (n = 4), tissue samples were formalin-fixed, paraffin-embedded and used to prepare serial 3 µm sections. Then, slices were deparaffinized and rehydrated. To evaluate the percentages of interphase/resting, mitotic and dead (apoptotic/necrotic) cell fractions in tumor specimens, sections were stained with hematoxylin and eosin (H/E) by means of standard protocols. Numbers of the three cell fractions were analyzed in a blinded setup in at least four images of H/E-stained tumor sections, taken under a 40 × objective microscope lens. In addition, for the quantification of areas of dead tumor tissue in whole tumor sections, the H/E-stained slides were scanned with a Pannoramic MIDI automated slide scanner (3[…], Budapest, Hungary) and evaluated using Definiens’ TissueStudio® 4.0 (Definiens®, Munich, Germany) software and Pannoramic Viewer (3[…]) software. To evaluate the fraction of apoptotic cells in tumor sections a terminal deoxynucleotidyl transferase (TdT) deoxyuridine triphosphate (dUTP) nick end labeling (TUNEL) assay was performed applying the In Situ Cell Death Kit TMR (red) (Roche Diagnostics, Mannheim, Germany) according to the manufacturer’s protocol. Afterwards, slides were covered with Vectashield anti-fade mounting medium with DAPI (H-1200, Vector Laboratories, Burlingame, CA, USA). Slides were protected from light until they were scanned with a Pannoramic MIDI automated slide scanner (3[…]) and analyzed via digital image analysis software (Definiens’ TissueStudio® 4.0, Definiens®). In order to visualize the proliferative cell fraction (cells in the interphase or M-phase) of tumors, KB-3-1 tumor sections were stained with the Ki-67 (clone MiB-1) antibody from DAKO (1:100; Glostrup, Denmark) and for CT-26 tumor sections with Ki-67 (1:100; D3B5, rabbit, Cell Signaling, Danvers, USA). The primary antibody was incubated for 30 min at room temperature in a humid chamber and after rinsing the slides for 3 min in PBS + 0.1% Tween, the UltraVision LP detection system was applied according to the manufacturer’s instructions (Thermo Fisher Scientific, Massachusetts, MA, USA). Sections were counterstained with hematoxylin. […]

beauvericin
Concentration at which induction of apoptotic cell death was clearly detectable [1]: > 2 µM
Mean tumor weight lowered ([2]; 5 mg/kg bw/day, day 16, vs control, p = 0.152): 31.2%
Reduction in tumor volume ([2]; 5 mg/kg bw/day, two cycles, day 16): 31.3%
Percentages of apoptotic/necrotic cells within viable areas (H/E) ([2]; treated vs control): almost no difference
Increase of TUNEL-positive cells ([2]; treated vs control, p = 0.143): 1.5 fold
Increase of proportion of necrotic areas in H/E-stained whole tumor sections ([2]; treated vs control, significant): 34.2%
Ki-67-positive cells ([2]; treatment group, tumor sections, control 99.5 ± 0.6%): 98.8 ± 0.6%
Mitotic cells in H/E-stained tumor sections ([2]; treatment group, control 1.5 ± 0.4%): 1.3 ± 0.3%

From publication PMC5618191 (Toxins, 2017)
